Where a name gives a salt, the structure may show the parent alone.
target: human GABA A receptor α5β3γ2 (α5 subunit) (Homo sapiens, UniProt P18507+P31644); experiment: biochemical; type: binding; conditions: competition for [3H]flumazenil binding, HEK293 cells transiently expressing human receptors; means of two determinations; read-out: hKi
Procedure: The affinity of compounds at GABA A receptor subtypes was measured by competition for [3H]flumazenil (85 Ci/mmol; Roche) binding to HEK293 cells expressing rat (stably transfected) or human (transiently transfected) receptors of composition α1β3γ2, α2β3γ2, α3β3γ2 and α5β3γ2.
Cell pellets were suspended in Krebs-tris buffer (4.8 mM KCl, 1.2 mM CaCl2, 1.2 mM MgCl2, 120 mM NaCl, 15 mM Tris; pH 7.5; binding assay buffer), homogenized by polytron for ca. 20 sec on ice and centrifuged for 60 min at 4° C. (50000 g; Sorvall, rotor: SM24=20000 rpm). The cell pellets were resuspended in Krebs-tris buffer and homogenized by polytron for ca. 15 sec on ice. Protein was measured (Bradford method, Bio-Rad) and aliquots of 1 mL were prepared and stored at −80° C.
Assays were incubated to equilibrium for 1 hour at 4° C. and harvested onto GF/C uni-filters (Packard) by filtration using a Packard harvester and washing with ice-cold wash buffer (50 mM Tris; pH 7.5). After drying, filter-retained radioactivity was detected by liquid scintillation counting. Ki values were calculated using Excel-Fit (Microsoft) and are the means of two determinations.

Sequence of human GABA A receptor α5β3γ2 (α5 subunit) (P31644 32-462): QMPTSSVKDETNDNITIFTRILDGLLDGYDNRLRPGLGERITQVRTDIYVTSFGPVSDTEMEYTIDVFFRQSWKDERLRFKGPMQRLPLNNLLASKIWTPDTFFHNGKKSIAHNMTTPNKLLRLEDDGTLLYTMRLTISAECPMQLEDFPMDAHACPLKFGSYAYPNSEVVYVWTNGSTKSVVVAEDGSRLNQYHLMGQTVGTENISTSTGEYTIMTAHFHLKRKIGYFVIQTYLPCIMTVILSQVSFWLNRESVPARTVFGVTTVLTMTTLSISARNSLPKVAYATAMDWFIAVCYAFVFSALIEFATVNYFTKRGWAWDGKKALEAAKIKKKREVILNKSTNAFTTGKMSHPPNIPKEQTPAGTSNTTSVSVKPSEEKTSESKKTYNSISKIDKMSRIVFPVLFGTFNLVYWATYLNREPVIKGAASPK
Sequence of human GABA A receptor α5β3γ2 (α5 subunit) (P28472 26-473 partner): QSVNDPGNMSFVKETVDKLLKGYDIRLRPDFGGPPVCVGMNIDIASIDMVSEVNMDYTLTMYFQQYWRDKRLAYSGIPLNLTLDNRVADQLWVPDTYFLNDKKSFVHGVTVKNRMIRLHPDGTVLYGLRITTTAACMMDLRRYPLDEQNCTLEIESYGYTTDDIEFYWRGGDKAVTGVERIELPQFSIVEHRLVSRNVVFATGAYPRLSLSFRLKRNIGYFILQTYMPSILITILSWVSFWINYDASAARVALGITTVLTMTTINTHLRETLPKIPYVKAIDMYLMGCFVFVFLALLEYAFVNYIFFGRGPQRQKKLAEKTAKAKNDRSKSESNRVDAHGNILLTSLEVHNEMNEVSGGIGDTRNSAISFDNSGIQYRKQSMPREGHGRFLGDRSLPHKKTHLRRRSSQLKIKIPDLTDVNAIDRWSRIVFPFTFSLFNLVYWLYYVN
Sequence of human GABA A receptor α5β3γ2 (α5 subunit) (P18507 40-475): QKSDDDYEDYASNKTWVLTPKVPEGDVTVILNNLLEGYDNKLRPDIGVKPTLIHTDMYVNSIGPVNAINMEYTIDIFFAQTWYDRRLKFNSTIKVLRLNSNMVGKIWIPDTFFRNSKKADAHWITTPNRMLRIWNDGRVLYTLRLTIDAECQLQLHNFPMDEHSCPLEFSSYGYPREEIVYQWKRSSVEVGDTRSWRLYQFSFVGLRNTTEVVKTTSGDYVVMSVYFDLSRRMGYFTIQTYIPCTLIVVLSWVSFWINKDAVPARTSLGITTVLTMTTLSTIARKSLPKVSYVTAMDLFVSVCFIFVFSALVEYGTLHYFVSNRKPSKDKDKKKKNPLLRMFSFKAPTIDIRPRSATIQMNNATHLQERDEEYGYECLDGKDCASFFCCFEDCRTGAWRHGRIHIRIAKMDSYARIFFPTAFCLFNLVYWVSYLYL

| Structure (SMILES) | Ki |
| --- | --- |
| Cc1onc(-c2ccccc2)c1COc1ccc(Cl)nn1 [Example 1, 3-Chloro-6-(5-methyl-3-phenyl-isoxazol-4-ylmethoxy)-pyridazine] | 9.6 nM |
| Cc1onc(-c2ccccc2)c1COc1ccc(Br)nn1 [Example 2, 3-Bromo-6-(5-methyl-3-phenyl-isoxazol-4-ylmethoxy)-pyridazine] | 7.6 nM |
| Cc1ccc(OCc2c(-c3ccccc3)noc2C)nn1 [Example 4, 3-Methyl-6-(5-methyl-3-phenyl-isoxazol-4-ylmethoxy)-pyridazine] | 6.2 nM |
| CCOC(=O)c1ccc(OCc2c(-c3ccccc3)noc2C)nn1 [Example 5, 6-(5-Methyl-3-phenyl-isoxazol-4-ylmethoxy)-pyridazine-3-carboxylic acid ethyl ester] | 5.5 nM |
| Cc1onc(-c2ccccc2)c1COc1ccc(C(=O)NC(C)C)nn1 [Example 7, 6-(5-Methyl-3-phenyl-isoxazol-4-ylmethoxy)-pyridazine-3-carboxylic acid isopropylamide] | 5.9 nM |
| Cc1onc(-c2ccccc2)c1COc1ccc(C(=O)NC(C)(C)CO)nn1 [Example 13, 6-(5-Methyl-3-phenyl-isoxazol-4-ylmethoxy)-pyridazine-3-carboxylic acid (2-hydroxy-1,1-dimethyl-ethyl)-amide] | 7.7 nM |
| COc1ccc(OCc2c(-c3ccccc3)noc2C)nn1 [Example 14, 3-Methoxy-6-(5-methyl-3-phenyl-isoxazol-4-ylmethoxy)-pyridazine] | 12.3 nM |
| Cc1onc(-c2ccccc2)c1COc1ccc(NC(=O)C(C)C)nn1 [Example 20, N-[6-(5-Methyl-3-phenyl-isoxazol-4-ylmethoxy)-pyridazin-3-yl]-isobutyramide] | 7.9 nM |
| Cc1onc(-c2ccccc2)c1COc1ccc(NC(=O)C2CCC2)nn1 [Example 22, Cyclobutanecarboxylic acid [6-(5-methyl-3-phenyl-isoxazol-4-ylmethoxy)-pyridazin-3-yl]-amide] | 10.1 nM |
| Cc1onc(-c2ccccc2)c1COc1ccc(NC(=O)C2CCOCC2)nn1 [Example 25, Tetrahydro-pyran-4-carboxylic acid [6-(5-methyl-3-phenyl-isoxazol-4-ylmethoxy)-pyridazin-3-yl]-amide] | 8.7 nM |
| Cc1onc(-c2ccccc2)c1COc1ccc(NC(=O)c2ccccc2)nn1 [Example 30, N-[6-(5-Methyl-3-phenyl-isoxazol-4-ylmethoxy)-pyridazin-3-yl]-benzamide] | 13.7 nM |
| Cc1onc(-c2ccccc2)c1COc1ccc(NC(=O)c2ccco2)nn1 [Example 32, Furan-2-carboxylic acid [6-(5-methyl-3-phenyl-isoxazol-4-ylmethoxy)-pyridazin-3-yl]-amide] | 6.9 nM |
| CCOC(=O)Nc1ccc(OCc2c(-c3ccccc3)noc2C)nn1 [Example 34, [6-(5-Methyl-3-phenyl-isoxazol-4-ylmethoxy)-pyridazin-3-yl]-carbamic acid ethyl ester] | 8.6 nM |
| Cc1onc(-c2ccccc2)c1COc1ccc(N2CCOCC2)nn1 [Example 36, 4-[6-(5-Methyl-3-phenyl-isoxazol-4-ylmethoxy)-pyridazin-3-yl]-morpholine] | 9.4 nM |
| CNc1ccc(OCc2c(-c3ccccc3)noc2C)nn1 [Example 37, Methyl-[6-(5-methyl-3-phenyl-isoxazol-4-ylmethoxy)-pyridazin-3-yl]-amine HCl] | 6.3 nM |
| Cc1onc(-c2ccccc2)c1COc1ccc(N(C)C)nn1 [Example 38, Dimethyl-[6-(5-methyl-3-phenyl-isoxazol-4-ylmethoxy)-pyridazin-3-yl]-amine] | 8.4 nM |
| CCOC(=O)c1ccc(OCc2c(-c3cccc(F)c3)noc2C)nn1 [Example 49, 6-[3-(3-Fluoro-phenyl)-5-methyl-isoxazol-4-ylmethoxy]-pyridazine-3-carboxylic acid ethyl ester] | 9.6 nM |
| CCNC(=O)c1ccc(OCc2c(-c3cccc(F)c3)noc2C)nn1 [Example 51, 6-[3-(3-Fluoro-phenyl)-5-methyl-isoxazol-4-ylmethoxy]-pyridazine-3-carboxylic acid ethylamide] | 6.1 nM |
| Cc1onc(-c2cccc(F)c2)c1COc1ccc(C(=O)NCCO)nn1 [Example 52, 6-[3-(3-Fluoro-phenyl)-5-methyl-isoxazol-4-ylmethoxy]-pyridazine-3-carboxylic acid (2-hydroxy-ethyl)-amide] | 6.6 nM |
| Cc1onc(-c2cccc(F)c2)c1COc1ccc(C(=O)NC(C)C)nn1 [Example 54, 6-[3-(3-Fluoro-phenyl)-5-methyl-isoxazol-4-ylmethoxy]-pyridazine-3-carboxylic acid isopropylamide] | 8.4 nM |
| Cc1onc(-c2cccc(F)c2)c1COc1ccc(C(=O)NC2CC2)nn1 [Example 55, 6-[3-(3-Fluoro-phenyl)-5-methyl-isoxazol-4-ylmethoxy]-pyridazine-3-carboxylic acid cyclopropylamide] | 6.7 nM |

Next, values leading:

| Ki | Structure (SMILES) |
| --- | --- |
| 5.4 nM | COCCNC(=O)c1ccc(OCc2c(-c3ccccc3)noc2C)nn1 [Example 6, 6-(5-Methyl-3-phenyl-isoxazol-4-ylmethoxy)-pyridazine-3-carboxylic acid (2-methoxy-ethyl)-amide] |
| 3.5 nM | Cc1onc(-c2ccccc2)c1COc1ccc(C(=O)NC2CC2)nn1 [Example 8, 6-(5-Methyl-3-phenyl-isoxazol-4-ylmethoxy)-pyridazine-3-carboxylic acid cyclopropylamide] |
| 4.8 nM | Cc1onc(-c2ccccc2)c1COc1ccc(C(=O)NC2CCOCC2)nn1 [Example 9, 6-(5-Methyl-3-phenyl-isoxazol-4-ylmethoxy)-pyridazine-3-carboxylic acid (tetrahydro-pyran-4-yl)-amide] |
| 3.4 nM | Cc1onc(-c2ccccc2)c1COc1ccc(C(=O)NCCO)nn1 [Example 12, 6-(5-Methyl-3-phenyl-isoxazol-4-ylmethoxy)-pyridazine-3-carboxylic acid (2-hydroxy-ethyl)-amide] |
| 4.1 nM | Cc1onc(-c2ccccc2)c1COc1ccc(N)nn1 [Example 15, 6-(5-Methyl-3-phenyl-isoxazol-4-ylmethoxy)-pyridazin-3-ylamine] |
| 3.9 nM | CC(=O)Nc1ccc(OCc2c(-c3ccccc3)noc2C)nn1 [Example 17, N-[6-(5-Methyl-3-phenyl-isoxazol-4-ylmethoxy)-pyridazin-3-yl]-acetamide] |
| 5.3 nM | Cc1onc(-c2ccccc2)c1COc1ccc(NC(=O)C2CC2)nn1 [Example 21, Cyclopropanecarboxylic acid [6-(5-methyl-3-phenyl-isoxazol-4-ylmethoxy)-pyridazin-3-yl]-amide] |
| 4 nM | Cc1onc(-c2ccccc2)c1COc1ccc(N2CCCC2=O)nn1 [Example 27, 1-[6-(5-Methyl-3-phenyl-isoxazol-4-ylmethoxy)-pyridazin-3-yl]-pyrrolidin-2-one] |
| 5.1 nM | COC(=O)C(=O)Nc1ccc(OCc2c(-c3ccccc3)noc2C)nn1 [Example 28, N-[6-(5-Methyl-3-phenyl-isoxazol-4-ylmethoxy)-pyridazin-3-yl]-oxalamic acid methyl ester] |
| 5.4 nM | Cc1onc(-c2ccccc2)c1COc1ccc(NC(=O)c2ccno2)nn1 [Example 33, Isoxazole-5-carboxylic acid [6-(5-methyl-3-phenyl-isoxazol-4-ylmethoxy)-pyridazin-3-yl]-amide] |
| 5.1 nM | Cc1cc(C)n(-c2ccc(OCc3c(-c4ccccc4)noc3C)nn2)n1 [Example 39, 3-(3,5-Dimethyl-pyrazol-1-yl)-6-(5-methyl-3-phenyl-isoxazol-4-ylmethoxy)-pyridazine] |
| 2.2 nM | CCOC(=O)c1cc(C)c(OCc2c(-c3ccccc3)noc2C)nn1 [Example 40, 5-Methyl-6-(5-methyl-3-phenyl-isoxazol-4-ylmethoxy)-pyridazine-3-carboxylic acid ethyl ester] |
| 2.3 nM | Cc1cc(OCc2c(-c3ccccc3)noc2C)nnc1Cl [Example 41, 3-Chloro-4-methyl-6-(5-methyl-3-phenyl-isoxazol-4-ylmethoxy)-pyridazine] |
| 1.9 nM | CCOC(=O)c1nnc(OCc2c(-c3ccccc3)noc2C)cc1C [Example 42, 4-Methyl-6-(5-methyl-3-phenyl-isoxazol-4-ylmethoxy)-pyridazine-3-carboxylic acid ethyl ester] |
| 3.4 nM | Cc1cc(OCc2c(-c3ccccc3)noc2C)nnc1C(=O)NC1CCOCC1 [Example 44, 4-Methyl-6-(5-methyl-3-phenyl-isoxazol-4-ylmethoxy)-pyridazine-3-carboxylic acid (tetrahydro-pyran-4-yl)-amide] |
| 1.4 nM | Cc1cc(OCc2c(-c3ccccc3)noc2C)nnc1C(=O)NC1CC1 [Example 45, 4-Methyl-6-(5-methyl-3-phenyl-isoxazol-4-ylmethoxy)-pyridazine-3-carboxylic acid cyclopropylamide] |
| 3.6 nM | Cc1cc(OCc2c(-c3ccccc3)noc2C)nnc1C(=O)NC(C)C [Example 46, 4-Methyl-6-(5-methyl-3-phenyl-isoxazol-4-ylmethoxy)-pyridazine-3-carboxylic acid isopropylamide] |
| 4.1 nM | CNC(=O)c1ccc(OCc2c(-c3cccc(F)c3)noc2C)nn1 [Example 50, 6-[3-(3-Fluoro-phenyl)-5-methyl-isoxazol-4-ylmethoxy]-pyridazine-3-carboxylic acid methylamide] |

— patent publication US7943619B2, “Isoxazolo-pyridazine derivatives” (priority 2007, dated 2011)
